Data published in US20170275287A1, “NOVEL N2, N4, N7, 6-TETRASUBSTITUTED PTERIDINE-2,4,7-TRIAMINE AND 2, 4, 6, 7-TETRASUBSTITUTED PTERIDINE COMPOUNDS AND METHODS OF SYNTHESIS AND USE THEREOF” (Janus Biotherapeutics, Inc., priority 2014, published 2017).

Legend:
hERG = molecular target: T1, hERG (Homo sapiens, UniProt Q12809); assay: hERG patch clamp assay (automated, CHO-hERG cells); type: cell-based
T1 construct: host or cells: CHO (Chinese hamster ovary)
Method: The hERG inhibition assay uses a high throughput single cell planar patch clamp approach. Chinese hamster ovary cells transfected with the hERG gene (CHO-hERG) are dispensed into the PatchPlate. Amphotericin is used as a perforating agent to gain electrical access to the cells. The hERG tail current is measured prior to the addition of the test compound by perforated patch clamping. Following addition of the test compound at a defined concentration or range of concentrations a second recording of the hERG current is performed. The degree of inhibition (%) is obtained by measuring the tail current amplitude, which is induced by a one second test pulse to −40 mV after a two second pulse to +20 mV, before and after drug incubation (the difference current is normalized to control and multiplied by 100 to obtain the percent of inhibition).
Concentration (log) response curves were fitted to a logistic equation (three parameters assuming complete block of the current at very high test compound concentrations) to generate estimates of the 50% inhibitory concentration (IC50). The concentration-response relationship of each compound is constructed from the percentage reductions of current The data is usually categorized into the following classification bands:
The hERG assay was conducted by Cyprotec Inc. in its Watertown, Mass. laboratories. The concentration range tested was 0.0096-30 μM. No concentration-dependent inhibition was observed, IC50>30 μM.
The hERG inhibition assay uses a high throughput single cell planar patch clamp approach. Chinese hamster ovary cells transfected with the hERG gene (CHO-hERG) are dispensed into the PatchPlate. Amphotericin is used as a perforating agent to gain electrical access to the cells. The hERG tail current is measured prior to the addition of the test compound by perforated patch clamping. Following addition of the test compound, n=4 cells per concentration, final DMSO concentration=0.25%), a second recording of the hERG current is performed.
Post-compound hERG currents are expressed as a percentage of pre-compound hERG currents (% control current) and plotted against concentration for each compound. Where concentration dependent inhibition is observed the Hill equation is used to fit a sigmoidal line to the data and an IC50 (concentration at which 50% inhibition is observed) is determined. The assays were performed according to Haverkamp, W. et al., 2000, Eur Heart J., 21:1216-1231, Kiss, L. et al., 2003, Assay Drug Dev. Technol., 1:127-135 and Schroeder, K. et al., 2003, J. Biomol Screen, 8:50-64.

TLR9 = molecular target: T2, TLR9 (Homo sapiens, UniProt Q9NR96); assay: TLR9 antagonist assay in human PBMCs (ODN2395, IFNα ELISA); type: cell-based; details: human PBMC, 0.25 μM ODN2395, IFNα readout
T2 construct: PBMCs were isolated from unpurified buffy coat from healthy human donors; host or cells: primary human PBMCs
T2 sequence (Q9NR96 26-1032): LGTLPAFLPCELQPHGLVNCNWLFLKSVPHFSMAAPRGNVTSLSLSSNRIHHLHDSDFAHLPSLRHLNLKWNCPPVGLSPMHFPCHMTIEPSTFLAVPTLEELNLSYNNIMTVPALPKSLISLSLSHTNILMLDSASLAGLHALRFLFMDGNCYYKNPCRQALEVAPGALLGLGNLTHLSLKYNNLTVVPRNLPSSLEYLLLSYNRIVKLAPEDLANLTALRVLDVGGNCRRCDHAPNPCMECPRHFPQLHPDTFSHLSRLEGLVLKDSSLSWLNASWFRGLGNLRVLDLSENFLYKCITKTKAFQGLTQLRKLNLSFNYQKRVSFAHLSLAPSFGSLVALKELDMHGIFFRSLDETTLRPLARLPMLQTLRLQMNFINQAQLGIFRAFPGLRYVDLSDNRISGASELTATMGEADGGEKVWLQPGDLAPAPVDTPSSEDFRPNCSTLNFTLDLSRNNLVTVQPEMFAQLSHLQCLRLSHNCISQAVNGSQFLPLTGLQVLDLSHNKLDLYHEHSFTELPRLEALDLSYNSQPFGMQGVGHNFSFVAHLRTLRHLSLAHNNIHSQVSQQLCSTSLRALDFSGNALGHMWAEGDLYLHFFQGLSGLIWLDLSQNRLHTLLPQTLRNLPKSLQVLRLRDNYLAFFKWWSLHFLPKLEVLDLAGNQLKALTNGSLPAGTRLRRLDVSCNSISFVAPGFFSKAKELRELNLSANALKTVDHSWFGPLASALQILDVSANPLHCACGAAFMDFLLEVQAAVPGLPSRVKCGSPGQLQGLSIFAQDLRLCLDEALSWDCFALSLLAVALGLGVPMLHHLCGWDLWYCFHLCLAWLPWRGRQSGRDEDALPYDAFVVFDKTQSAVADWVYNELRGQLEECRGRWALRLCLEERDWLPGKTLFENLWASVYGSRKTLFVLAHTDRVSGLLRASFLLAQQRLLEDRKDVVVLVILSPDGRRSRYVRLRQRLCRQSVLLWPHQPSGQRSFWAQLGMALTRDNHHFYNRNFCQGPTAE
Method: PBMCs were isolated from unpurified buffy coat from healthy human donors (Blood Research Components, LLC). For antagonist testing, cells were plated on 96-well U-bottom plates at 3×10^6 cells/ml. Antagonist compounds were added to cells in duplicate wells and titrated from 10 μM in 1:3 serial dilutions (8 antagonist concentrations tested in total). After approximately 30 minutes, cells were stimulated with agonist compound (see table 2 for agonist concentrations). After stimulation, cells were incubated overnight at 37° C. To increase the stability of the ssRNA, 3 μg/ml DOTAP (Roche) was added to ORN1075 agonist solutions. All dilutions were made in RPMI-1640 media (Sigma, cat.# R7388)+5% human male AB sera (Sigma, cat.# H4522)+1× Penicillin/Streptomycin solution (VWR, cat.#82026-730).
TLR activity was measured in PBMCs and neutrophils by ELISA using cytokine readouts specific for the TLR of interest.
IFNα was measured as a readout for TLR7 and TLR9 activity in PBMCs stimulated with either ORN1075, or ODN2395, respectively, using a Human Pan-IFNα ELISA kit (MABTech, cat.#3425-1H-20). PBMC supernatant was diluted 1:3 in PBS+0.05% tween-20+0.1% BSA. Absorbance at 450 nm was recorded using a Molecular Devices SpectraMax340PC plate reader. The IC50 for each antagonist was subsequently calculated following the method described below.
Raw ELISA datasets for each 96-well plate, consisting of absorbance readings at […], were first imported in Microsoft Excel to calculate the average absorbance for each standard or antagonist concentration. The averaged data was then imported into SigmaPlot v.11.0 where a standard curve was calculated and used to extrapolate the relative concentration of TLR readout (TNFα, IFNα, etc.) produced. The dose-response curve of each antagonist was then plotted with SigmaPlot v.11.0 on a Log scale. Concentrations of TLR readout were converted to a percentage relative to the average maximum concentration for that ELISA plate in Microsoft Excel. The IC50 for each antagonist was then determined with the SigmaPlot regression wizard using a 4-parameter Hill equation. Each antagonist was tested in a minimum of 3 independent experiments and IC50 results were compiled and averaged using Microsoft Excel.

T1 sequence (Q12809 whole entry): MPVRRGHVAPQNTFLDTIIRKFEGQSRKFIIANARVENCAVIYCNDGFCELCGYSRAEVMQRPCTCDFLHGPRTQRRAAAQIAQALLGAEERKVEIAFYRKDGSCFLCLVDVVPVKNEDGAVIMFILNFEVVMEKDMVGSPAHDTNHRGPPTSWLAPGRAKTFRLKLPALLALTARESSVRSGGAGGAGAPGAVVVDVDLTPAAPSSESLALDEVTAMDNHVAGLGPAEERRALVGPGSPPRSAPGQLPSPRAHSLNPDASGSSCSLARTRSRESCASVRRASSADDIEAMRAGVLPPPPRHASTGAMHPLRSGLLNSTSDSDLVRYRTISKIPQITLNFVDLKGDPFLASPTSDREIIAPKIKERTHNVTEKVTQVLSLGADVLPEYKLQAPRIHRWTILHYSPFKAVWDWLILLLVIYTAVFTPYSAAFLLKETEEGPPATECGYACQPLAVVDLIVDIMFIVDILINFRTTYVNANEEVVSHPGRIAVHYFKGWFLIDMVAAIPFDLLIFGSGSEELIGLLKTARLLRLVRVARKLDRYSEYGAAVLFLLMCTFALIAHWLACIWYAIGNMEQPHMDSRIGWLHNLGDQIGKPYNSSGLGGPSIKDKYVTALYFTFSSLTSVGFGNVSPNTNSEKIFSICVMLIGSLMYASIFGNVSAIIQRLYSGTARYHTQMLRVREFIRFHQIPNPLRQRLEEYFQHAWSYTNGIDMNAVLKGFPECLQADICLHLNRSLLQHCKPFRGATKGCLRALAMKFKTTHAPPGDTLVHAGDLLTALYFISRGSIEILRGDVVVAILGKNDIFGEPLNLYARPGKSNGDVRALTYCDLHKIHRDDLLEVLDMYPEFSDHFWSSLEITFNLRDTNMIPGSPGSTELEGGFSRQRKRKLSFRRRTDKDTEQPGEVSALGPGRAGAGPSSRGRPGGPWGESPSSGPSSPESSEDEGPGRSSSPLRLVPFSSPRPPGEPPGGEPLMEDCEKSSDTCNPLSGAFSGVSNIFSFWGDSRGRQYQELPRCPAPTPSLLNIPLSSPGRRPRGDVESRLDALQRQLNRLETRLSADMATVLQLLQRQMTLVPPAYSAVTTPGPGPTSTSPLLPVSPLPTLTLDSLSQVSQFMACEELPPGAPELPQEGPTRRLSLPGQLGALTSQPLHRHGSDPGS

Compound | IC50 (hERG; Table 4b) | IC50 (hERG; hERG patch clamp assay, FIG. 1) | IC50 (TLR9) | IC50 (hERG; human, CHO cells transfected with hERG (CHO-hERG), Table 4b) | IC50 (hERG; Cyprotec, concentration range tested 0.0096-30 μM) | hERG inhibition (hERG; up to 30 μM)
CN1CCN(c2nc(NCCN3CCOCC3)c3ncc(-c4ccccc4)nc3n2)CC1 [JB6059] | 5000 nM | 6200 nM | 305 nM |  |  | 
CN1CCN(c2nc3nc(-c4ccccc4)nc(NCCN4CCOCC4)c3nc2OCCN2CCOCC2)CC1 [JB6116] |  | 13100 nM | 297 nM | < 30000 nM |  | 
CN1CCN(c2nc(NCCN3CCOCC3)c3nc(Cl)c(NCCN4CCOCC4)nc3n2)CC1 [JB6121, 6-chloro-2-(4-methylpiperazin-1-yl)-N^4,N^7-bis(2-morpholinoethyl)pteridine-4,7-diamine] | > 30000 nM |  | 146 nM |  | > 30000 nM | no measurable hERG inhibition
CCOc1nc2c(NCCN3CCCC3)nc(-c3ccccc3)nc2nc1N1CCN(C)CC1 [JB6131] | < 10000 nM | 8100 nM | 326 nM |  |  | 
CCCCNc1nc(NCCN2CCOCC2)c2nc(Cl)c(NCCN3CCOCC3)nc2n1 [JB6140] | < 1000 nM |  | 101 nM |  |  | 
C[C@@H]1CN(CCNc2nc3nc(N4CCN(C)CC4)nc(NCCN4C[C@@H](C)O[C@@H](C)C4)c3nc2Cl)C[C@H](C)O1 [JB6143] | > 30000 nM |  | 54 nM |  |  | 
Clc1nc2c(NCCN3CCOCC3)nc(N3CCOCC3)nc2nc1NCCN1CCOCC1 [JB6147] |  |  | 8680 nM |  |  | 
COCCN1CCN(c2nc(NCCN3CCOCC3)c3nc(Cl)c(NCCN4CCOCC4)nc3n2)CC1 [JB6160] | > 30000 nM |  | 60 nM |  |  | 
Clc1nc2c(NCCN3CCOCC3)nc(NCc3ccccc3)nc2nc1NCCN1CCOCC1 [JB6172] | 1000 nM |  | 167 nM |  |  | 
CCOc1nc2c(NCCN3CCOCC3)nc(NCc3ccccc3)nc2nc1NCCN1CCOCC1 [JB6180] | 300 nM |  | 114 nM |  |  | 
CCCCNc1nc(NCCN2CCOCC2)c2nc(SCC)c(NCCN3CCOCC3)nc2n1 [JB6185] | < 300 nM |  | 61 nM |  |  | 
